In ChEMBL document CHEMBL6074659, “Development of an Intravenously Stable Disulfide-Rich Peptide for the Treatment of Chemotherapy-Induced Neuropathic Pain” (J Med Chem, 2024):
pIC50: −log10 of the molar value. Active and inactive are the calls of the source. The rule behind the calls is not given here. Residues, ends and D or L forms follow the SMILES beside them.

What was measured:
[1] = Stability in human serum assessed as half life incubated upto 48 hrs by RP-HPLC analysis; assay type: ADME, cell-free
[2] = target: T1, Neuronal acetylcholine receptor; alpha9/alpha10 (Homo sapiens, UniProt Q9GZZ6+Q9UGM1); test: Inhibition of human alpha9alpha10 nAChR assessed as reduction in acetylcholine-induced current incubated for 5 mins by two electrode voltage-clamp assay; assay type: protein-complex assay
[3] = target: Neuronal acetylcholine receptor; alpha9/alpha10 (Homo sapiens) (UniProt Q9UGM1+Q9GZZ6); test: Antagonist activity at human alpha9alpha10 nAChR expressed in acetylcholine-induced Xenopus laevis oocytes assessed as inhibition of acetylcholine-induced current at 10 nM at -80 mV holding potential incubated for 5 mins by two electrode voltage-clamp assay relative to control; assay type: cell-based; details: Oocyte, filed as antagonist
Rattus norvegicus [4] = test: Analgesic activity in Oxaliplatin-induced cold allodynia SPF male Sprague-Dawley rat assessed as reduction in pain-relieving effect at 500 microg/kg, iv measured at 1 to 24 hrs; assay type: functional, organism-based; details: dose 500.0 µg/kg, time 1-24 hrs
Rattus norvegicus [5] = test: Analgesic activity in Oxaliplatin-induced cold allodynia SPF male Sprague-Dawley rat assessed as increase in latency at 200 microg/kg, iv measured at 72 hrs by cold plate test; assay type: functional, organism-based; details: dose 200.0 µg/kg
[6] = target: Neuronal acetylcholine receptor; alpha3/beta2 (Homo sapiens, UniProt P17787+P32297); test: Inhibition of human alpha3beta2 nAChR assessed as reduction in acetylcholine-induced current incubated for 5 mins by two electrode voltage-clamp assay; assay type: protein-complex assay
[7] = target: T1, Neuronal acetylcholine receptor; alpha9/alpha10; test: Antagonist activity at human alpha9alpha10 nAChR expressed in acetylcholine-induced Xenopus laevis oocytes assessed as inhibition of acetylcholine-induced current at -80 mV holding potential incubated for 5 mins by two electrode voltage-clamp assay; assay type: cell-based, Oocyte
[8] = target: Neuronal acetylcholine receptor subunit alpha-7 (Homo sapiens, UniProt P36544); test: Inhibition of human alpha7 nAChR assessed as reduction in acetylcholine-induced current incubated for 5 mins by two electrode voltage-clamp assay
[9] = Stability in human serum assessed as parent compound remaining incubated at 48 hrs by RP-HPLC analysis; assay type: ADME, cell-free; details: read-out: Stability
[10] = Stability in human serum assessed as parent compound remaining incubated at 24 hrs by RP-HPLC analysis; assay type: ADME, cell-free; details: for remaining at 24 h: human serum, read-out: Stability
Homo sapiens [11] = species on record: Homo sapiens; test: Inhibition of human alpha1beta1deltagamma nAChR assessed as reduction in acetylcholine-induced current at 10 to 100 nM incubated for 5 mins by two electrode voltage-clamp assay relative to control; details: dose 10-100 nM
Rattus norvegicus [12] = test: Analgesic activity in Oxaliplatin-induced cold allodynia SPF male Sprague-Dawley rat assessed as increase in latency at 500 microg/kg, iv measured at 72 hrs by cold plate test; assay type: functional, organism-based; details: dose 500.0 µg/kg
Rattus norvegicus [13] = test: Analgesic activity in Oxaliplatin-induced cold allodynia SPF male Sprague-Dawley rat assessed as reduction in pain-relieving effect by measuring acetone response score at 50 microg/kg, iv measured at 48 hrs; assay type: functional, organism-based; details: dose 50.0 µg/kg
[14] = target: T2, Neuronal acetylcholine receptor; alpha4/beta4 (Homo sapiens) (UniProt P30926+P43681); test: Inhibition of human alpha4beta4 nAChR assessed as reduction in acetylcholine-induced current at 10 nM incubated for 5 mins by two electrode voltage-clamp assay; assay type: protein-complex assay
Rattus norvegicus [15] = test: Analgesic activity in Oxaliplatin-induced cold allodynia SPF male Sprague-Dawley rat assessed as reduction in pain-relieving effect at 500 microg/kg, iv measured at 24 to 48 hrs; assay type: functional, organism-based; details: dose 500.0 µg/kg, time 24-48 hrs
[16] = Stability in human serum assessed as half life incubated upto 192 hrs by RP-HPLC analysis; assay type: ADME, cell-free
Rattus norvegicus [17] = test: Analgesic activity in Oxaliplatin-induced cold allodynia SPF male Sprague-Dawley rat assessed as latency time at 500 microg/kg, iv measured at 48 hrs by cold plate test; assay type: functional; details: dose 500 µg/kg
[18] = target: T2, Neuronal acetylcholine receptor; alpha4/beta4 (Homo sapiens); test: Inhibition of human alpha4beta4 nAChR assessed as reduction in acetylcholine-induced current at 100 nM incubated for 5 mins by two electrode voltage-clamp assay relative to control; assay type: protein-complex assay
Rattus norvegicus [19] = test: Analgesic activity in Oxaliplatin-induced cold allodynia iv dosed SPF male Sprague-Dawley rat assessed as reduction in pain-relieving effect measured at 72 hrs; assay type: functional, organism-based; details: dose 500.0 µg/kg
Homo sapiens [20] = species on record: Homo sapiens; test: Inhibition of human alpha1beta1epsilondelta nAChR assessed as reduction in acetylcholine-induced current at 10 to 100 nM incubated for 5 mins by two electrode voltage-clamp assay relative to control; details: dose 10-100 nM
Rattus norvegicus [21] = test: Analgesic activity in Oxaliplatin-induced cold allodynia SPF male Sprague-Dawley rat assessed as reduction in pain-relieving effect by measuring acetone response score at 200 microg/kg, iv measured at 48 hrs; assay type: functional, organism-based; details: dose 200.0 µg/kg
[22] = target: Neuronal acetylcholine receptor; alpha3/beta4 (Homo sapiens) (UniProt P30926+P32297); test: Inhibition of human alpha3beta4 nAChR assessed as reduction in acetylcholine-induced current at 10 to 100 nM incubated for 5 mins by two electrode voltage-clamp assay relative to control; assay type: protein-complex assay; details: dose 10-100 nM
[23] = target: T2, Neuronal acetylcholine receptor; alpha4/beta4 (Homo sapiens); test: Inhibition of human alpha4beta4 nAChR assessed as reduction in acetylcholine-induced current at 10 to 100 nM incubated for 5 mins by two electrode voltage-clamp assay relative to control; assay type: protein-complex assay; details: dose 10-100 nM

T1 sequence (Q9UGM1 whole entry): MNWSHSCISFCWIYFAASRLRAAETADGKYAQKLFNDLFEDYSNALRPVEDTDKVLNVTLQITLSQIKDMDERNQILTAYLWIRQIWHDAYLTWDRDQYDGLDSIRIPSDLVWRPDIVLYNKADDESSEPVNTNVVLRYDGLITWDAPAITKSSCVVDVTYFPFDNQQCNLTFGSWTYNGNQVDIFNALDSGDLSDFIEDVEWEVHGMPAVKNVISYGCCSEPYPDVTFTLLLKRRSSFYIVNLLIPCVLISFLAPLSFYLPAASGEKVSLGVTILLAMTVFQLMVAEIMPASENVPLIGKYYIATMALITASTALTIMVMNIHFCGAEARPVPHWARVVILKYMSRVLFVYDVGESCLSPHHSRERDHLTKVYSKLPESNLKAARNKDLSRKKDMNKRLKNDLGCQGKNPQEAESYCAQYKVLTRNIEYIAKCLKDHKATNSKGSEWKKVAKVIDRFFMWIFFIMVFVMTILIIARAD
T1 sequence (Q9GZZ6 whole entry): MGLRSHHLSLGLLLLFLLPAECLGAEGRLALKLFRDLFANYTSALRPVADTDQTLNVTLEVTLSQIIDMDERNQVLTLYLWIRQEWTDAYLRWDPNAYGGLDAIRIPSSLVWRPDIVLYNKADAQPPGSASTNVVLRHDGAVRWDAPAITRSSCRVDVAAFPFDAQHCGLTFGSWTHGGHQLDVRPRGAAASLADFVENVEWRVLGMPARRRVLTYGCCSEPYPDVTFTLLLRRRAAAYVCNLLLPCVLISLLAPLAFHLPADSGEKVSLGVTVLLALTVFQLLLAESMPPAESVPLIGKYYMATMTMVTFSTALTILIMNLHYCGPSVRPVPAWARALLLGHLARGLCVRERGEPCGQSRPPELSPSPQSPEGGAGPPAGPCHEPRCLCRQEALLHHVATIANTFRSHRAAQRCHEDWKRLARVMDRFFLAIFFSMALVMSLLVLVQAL
Chain of Neuronal acetylcholine receptor; alpha3/beta2 (P17787 whole entry): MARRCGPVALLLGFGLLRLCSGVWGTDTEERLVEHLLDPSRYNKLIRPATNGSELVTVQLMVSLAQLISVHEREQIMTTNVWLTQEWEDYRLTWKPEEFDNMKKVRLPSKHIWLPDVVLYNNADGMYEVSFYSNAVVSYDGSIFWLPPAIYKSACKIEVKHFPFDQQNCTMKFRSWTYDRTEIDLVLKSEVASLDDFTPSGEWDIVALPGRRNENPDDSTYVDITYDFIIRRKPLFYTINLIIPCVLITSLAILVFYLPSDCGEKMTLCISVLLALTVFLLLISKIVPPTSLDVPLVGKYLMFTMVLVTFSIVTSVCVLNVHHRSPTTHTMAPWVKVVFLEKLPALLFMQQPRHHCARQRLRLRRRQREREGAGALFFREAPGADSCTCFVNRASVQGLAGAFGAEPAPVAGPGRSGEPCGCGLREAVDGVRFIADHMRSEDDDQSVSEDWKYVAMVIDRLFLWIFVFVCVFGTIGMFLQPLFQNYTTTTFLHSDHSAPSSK
Chain of Neuronal acetylcholine receptor; alpha3/beta2 (P32297 whole entry): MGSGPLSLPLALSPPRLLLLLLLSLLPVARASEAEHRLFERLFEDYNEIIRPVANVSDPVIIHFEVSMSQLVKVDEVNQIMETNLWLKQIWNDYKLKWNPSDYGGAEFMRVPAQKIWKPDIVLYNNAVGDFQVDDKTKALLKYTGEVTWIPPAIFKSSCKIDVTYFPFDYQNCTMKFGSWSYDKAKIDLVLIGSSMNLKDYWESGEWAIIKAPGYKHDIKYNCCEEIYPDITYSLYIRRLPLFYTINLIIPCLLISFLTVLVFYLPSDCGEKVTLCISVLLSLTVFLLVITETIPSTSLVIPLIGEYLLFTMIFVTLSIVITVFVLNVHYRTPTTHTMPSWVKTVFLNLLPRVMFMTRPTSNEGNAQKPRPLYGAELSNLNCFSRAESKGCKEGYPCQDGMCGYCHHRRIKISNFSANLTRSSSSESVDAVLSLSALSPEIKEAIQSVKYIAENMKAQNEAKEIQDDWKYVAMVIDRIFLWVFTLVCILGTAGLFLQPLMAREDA
Chain of Neuronal acetylcholine receptor subunit alpha-7 (P36544 whole entry): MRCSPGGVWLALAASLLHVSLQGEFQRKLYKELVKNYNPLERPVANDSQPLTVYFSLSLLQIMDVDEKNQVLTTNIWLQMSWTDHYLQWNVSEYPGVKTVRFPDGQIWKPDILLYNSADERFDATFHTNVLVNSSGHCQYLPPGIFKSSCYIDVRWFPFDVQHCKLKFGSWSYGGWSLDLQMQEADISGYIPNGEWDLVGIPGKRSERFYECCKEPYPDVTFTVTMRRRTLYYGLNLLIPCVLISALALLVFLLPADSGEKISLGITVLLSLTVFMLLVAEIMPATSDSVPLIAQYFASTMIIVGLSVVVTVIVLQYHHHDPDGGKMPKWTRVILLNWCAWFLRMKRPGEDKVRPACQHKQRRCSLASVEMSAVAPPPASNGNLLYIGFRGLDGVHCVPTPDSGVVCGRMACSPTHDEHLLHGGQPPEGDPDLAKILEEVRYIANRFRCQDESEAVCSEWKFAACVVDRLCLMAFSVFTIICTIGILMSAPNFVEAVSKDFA

## CC[C@H](C)[C@H](NC(=O)[C@H](CC(=O)O)NC(=O)[C@@H]1CCCN1C(=O)[C@H](CC(N)=O)NC(=O)[C@H](CC(N)=O)NC(=O)[C@@H](NC(=O)[C@H](CO)NC(=O)[C@H](CS)NC(=O)[C@H](C)NC(=O)[C@@H]1CCCN1C(=O)[C@H](Cc1cnc[nH]1)NC(=O)[C@H](CN)NC(=O)[C@H](CS)NC(=O)[C@H](CS)NC(=O)CN)C(C)C)C(=O)N[C@@H](CS)C(N)=O (HELM PEPTIDE1{G.C.C.[NC[C@H](N[*:1])C(=O)[*:2]].H.P.A.C.S.V.N.N.P.D.I.C.[am]}$$$$V2.0)
[1]
  half-life: 26.2 h
[2]
  pIC50: 8.40
[3]
  inhibition: 80%
Rattus norvegicus [4]
  Activity: Active
Rattus norvegicus [5]
  Activity: Active
[6]
  pIC50: 7.69
[7]
  pIC50: 8.40
[8]
  pIC50: 6.69
[9]
  remaining at 48 h: < 30%
[10]
  remaining at 24 h: 58.6%
[10]; serum, 24 h
  Stability: 57.3%

## CC[C@H](C)[C@@H]1NC(=O)[C@H](CC(=O)O)NC(=O)[C@@H]2CCCN2C(=O)[C@H](CC(N)=O)NC(=O)[C@H](CC(N)=O)NC(=O)[C@H](C(C)C)NC(=O)[C@H](CO)NC(=O)[C@@H]2CSSC[C@H](NC(=O)CN)C(=O)N[C@@H](CSSC(C)(C)[C@@H](C(N)=O)NC1=O)C(=O)N[C@@H](CN)C(=O)N[C@@H](Cc1cnc[nH]1)C(=O)N1CCC[C@H]1C(=O)N[C@@H](C)C(=O)N2 (HELM PEPTIDE1{G.C.C.[NC[C@H](N[*:1])C(=O)[*:2]].H.P.A.C.S.V.N.N.P.D.I.[Pen].[am]}$PEPTIDE1,PEPTIDE1,2:R3-8:R3|PEPTIDE1,PEPTIDE1,3:R3-16:R3$$$V2.0)
Homo sapiens [11]
  inhibition: < 1%
Rattus norvegicus [12]
  Activity: Active
Rattus norvegicus [13]
  Activity: inactive
[14]
  inhibition: inactive
Rattus norvegicus [15]
  Activity: Active
[2]
  pIC50: 8.39
[16]
  half-life: 142 h
Rattus norvegicus [17]
  Time: 140 s
Rattus norvegicus [5]
  Activity: Active
[6]
  pIC50: 7.66
[18]
  inhibition: 20%
[7]
  pIC50: 8.40
Rattus norvegicus [19]
  Activity: Dose-dependent-effect
[8]
  pIC50: 6.88
Homo sapiens [20]
  inhibition: < 1%
Rattus norvegicus [21]
  Activity: Active
[22]
  inhibition: < 1%
[23]
  inhibition: < 1%
[9]
  remaining at 48 h: 85%
[10]
  remaining at 24 h: 90%
